According to ChEMBL document CHEMBL3352337, “Scaffold-switching: an exploration of 5,6-fused bicyclic heteroaromatics systems to afford antituberculosis activity akin to the imidazo[1,2-a]pyridine-3-carboxylates” (Bioorg Med Chem Lett, 2014):
≈ marks a conversion by molar mass, not a printed value.

Key:
[1] = test system: Mycobacterium tuberculosis; assay: Antitubercular activity against Mycobacterium tuberculosis H37Rv ATCC 27294 in 7H12 medium after 7 days by Microplate Alamar Blue assay; format: functional; details: H37Rv ATCC 27294, 168 h
[2] = test system: Mycobacterium tuberculosis; assay: Antitubercular activity against Mycobacterium tuberculosis H37Rv ATCC 27294 in glycerol-alanine-salts medium after 7 days by Microplate Alamar Blue assay; format: functional; details: H37Rv ATCC 27294, 168 h
Mycobacteroides chelonae = assay: Antimycobacterial activity against Mycobacterium chelonae ATCC 35752 in 7H9 medium after 3 days and 4 hrs after adding resazurin dye/Tween 80 by Microplate Alamar Blue assay; format: functional
[3] = test system: Mycolicibacterium smegmatis; assay: Antimycobacterial activity against Mycobacterium smegmatis by broth microdilution assay; format: functional
Candida albicans = assay: Antimicrobial activity against Candida albicans by broth microdilution assay; format: functional
Mycobacterium kansasii = assay: Antimycobacterial activity against Mycobacterium kansasii ATCC 12478 in 7H9 medium after 6 days and 18 hrs after adding resazurin dye/Tween 80 by Microplate Alamar Blue assay; format: functional
[4] = test system: Mycobacterium tuberculosis; assay: Antitubercular activity against Mycobacterium tuberculosis H37Rv transfected with pFCA-luxAB in 7H12 medium after 10 days by low-oxygen recovery assay; format: functional; details: 240 h
Escherichia coli = assay: Antimicrobial activity against Escherichia coli by broth microdilution assay; format: functional
Staphylococcus aureus = assay: Antimicrobial activity against Staphylococcus aureus by broth microdilution assay; format: functional
[5] = test system: Mycobacteroides abscessus; assay: Antimycobacterial activity against Mycobacterium abscessus ATCC 19977 in 7H9 medium after 3 days and 4 hrs after adding resazurin dye/Tween 80 by Microplate Alamar Blue assay; format: functional
Mycobacterium avium = assay: Antimycobacterial activity against Mycobacterium avium ATCC 15769 in 7H9 medium after 6 days and 18 hrs after adding resazurin dye/Tween 80 by Microplate Alamar Blue assay; format: functional
Vero = assay: Cytotoxicity against African green monkey Vero cells assessed as cell viability after 72 hrs by CellTiter 96 assay; format: cell-based; details: Chlorocebus sabaeus
Mycobacterium marinum = assay: Antimycobacterial activity against Mycobacterium marinum ATCC 927 in 7H9 medium after 5 days and 6 hrs after adding resazurin dye/Tween 80 by Microplate Alamar Blue assay; format: functional

Cc1cc2nc(C)c(C(=O)OCc3ccccc3)n2c(C)n1
MIC90 [1]: 1.1 µM (≈ 0.325 µg/mL)
MIC90 [2]: 1.1 µM

Cc1ccc2c(C(=O)NCc3ccccc3)n[nH]c2c1
MIC (Mycobacteroides chelonae): > 128 µM
MIC [3]: > 128 µM
MIC90 [1]: > 128 µM
MIC (Candida albicans): > 128 µM
MIC (Mycobacterium kansasii): > 128 µM
MIC90 [2]: 40.8 µM
MIC90 [4]: > 128 µM
MIC (Escherichia coli): > 128 µM
MIC (Staphylococcus aureus): > 128 µM
MIC [5]: > 128 µM
MIC (Mycobacterium avium): > 128 µM
IC50 (Vero): > 128 µM
MIC (Mycobacterium marinum): > 128 µM

Cc1ccc2nc(C)c(C(=O)NCc3ccccc3)n2c1
MIC (Mycobacteroides chelonae): 94 µM (≈ 26.3 µg/mL)
MIC [3]: > 128 µM
MIC90 [1]: 0.49 µM (≈ 0.137 µg/mL)
MIC (Candida albicans): > 128 µM
MIC (Mycobacterium kansasii): 4 µM (≈ 1.12 µg/mL)
MIC90 [2]: 0.11 µM
MIC90 [4]: > 128 µM
MIC (Escherichia coli): > 128 µM
MIC (Staphylococcus aureus): > 128 µM
MIC [5]: > 128 µM
MIC (Mycobacterium avium): 15.7 µM (≈ 4.39 µg/mL)
IC50 (Vero): > 128 µM
MIC (Mycobacterium marinum): > 128 µM

Cc1ccc2c(C(=O)NCc3ccccc3)c(C)[nH]c2c1
MIC (Mycobacteroides chelonae): > 128 µM
MIC [3]: > 128 µM
MIC90 [1]: > 128 µM
MIC (Candida albicans): > 128 µM
MIC (Mycobacterium kansasii): > 128 µM
MIC90 [2]: 43.8 µM
MIC90 [4]: > 128 µM
MIC (Escherichia coli): > 128 µM
MIC (Staphylococcus aureus): > 128 µM
MIC [5]: > 128 µM
MIC (Mycobacterium avium): > 128 µM
IC50 (Vero): > 128 µM
MIC (Mycobacterium marinum): > 128 µM

Cc1ccn2c(C)c(C(=O)NCc3ccccc3)nc2c1
MIC (Mycobacteroides chelonae): > 128 µM
MIC [3]: > 128 µM
MIC90 [1]: > 128 µM
MIC (Candida albicans): > 128 µM
MIC (Mycobacterium kansasii): > 128 µM
MIC90 [2]: 70 µM
MIC90 [4]: > 128 µM
MIC (Escherichia coli): > 128 µM
MIC (Staphylococcus aureus): > 128 µM
MIC [5]: > 128 µM
MIC (Mycobacterium avium): > 128 µM
IC50 (Vero): > 128 µM
MIC (Mycobacterium marinum): > 128 µM

O=[N+]([O-])c1cn2c(n1)OC[C@@H](OCc1ccc(OC(F)(F)F)cc1)C2 [PRETOMANID]
MIC90 [1]: 0.09 µM (≈ 0.0323 µg/mL)
MIC90 [2]: 0.12 µM
MIC90 [4]: 4.9 µM (≈ 1.76 µg/mL)
IC50 (Vero): > 128 µM

Cc1ccc2nc(C)c(C(=O)OCc3ccccc3)n2c1
MIC90 [1]: 0.004 µM (≈ 0.00112 µg/mL)
MIC90 [2]: 0.004 µM

Cc1cn2c(C(=O)OCc3ccccc3)c(C)nc2cn1
MIC90 [1]: 2.3 µM (≈ 0.647 µg/mL)
MIC90 [2]: 2.3 µM

Cc1ccc2nc(C)c(C(=O)NCc3ccccc3)n2n1
MIC (Mycobacteroides chelonae): > 128 µM
MIC [3]: > 128 µM
MIC90 [1]: > 128 µM
MIC (Candida albicans): > 128 µM
MIC (Mycobacterium kansasii): > 128 µM
MIC90 [2]: 63.8 µM
MIC90 [4]: > 128 µM
MIC (Escherichia coli): > 128 µM
MIC (Staphylococcus aureus): > 128 µM
MIC [5]: > 128 µM
MIC (Mycobacterium avium): > 128 µM
IC50 (Vero): 24.7 µM
MIC (Mycobacterium marinum): > 128 µM

COc1c(N2C[C@@H]3CCCN[C@@H]3C2)c(F)cc2c(=O)c(C(=O)O)cn(C3CC3)c12 [MOXIFLOXACIN]
MIC (Mycobacteroides chelonae): 0.24 µM (≈ 0.0963 µg/mL)
MIC (Mycobacterium kansasii): 0.12 µM (≈ 0.0482 µg/mL)
MIC [5]: 22.4 µM (≈ 8.99 µg/mL)
MIC (Mycobacterium avium): 6.1 µM (≈ 2.45 µg/mL)
MIC (Mycobacterium marinum): 12.4 µM (≈ 4.98 µg/mL)

Cc1ccn2c(C(=O)NCc3ccccc3)nnc2c1
MIC (Mycobacteroides chelonae): > 128 µM
MIC [3]: > 128 µM
MIC90 [1]: > 128 µM
MIC (Candida albicans): > 128 µM
MIC (Mycobacterium kansasii): > 128 µM
MIC90 [2]: 101 µM
MIC90 [4]: > 128 µM
MIC (Escherichia coli): > 128 µM
MIC (Staphylococcus aureus): > 128 µM
MIC [5]: > 128 µM
MIC (Mycobacterium avium): > 128 µM
IC50 (Vero): > 128 µM
MIC (Mycobacterium marinum): > 128 µM

CO[C@H]1/C=C/O[C@@]2(C)Oc3c(C)c(O)c4c(O)c(c(/C=N/N5CCN(C)CC5)c(O)c4c3C2=O)NC(=O)/C(C)=C\C=C\[C@H](C)[C@H](O)[C@@H](C)[C@@H](O)[C@@H](C)[C@H](OC(C)=O)[C@@H]1C [RIFAMPIN]
MIC (Mycobacteroides chelonae): > 100 µM
MIC90 [1]: 0.06 µM (≈ 0.0494 µg/mL)
MIC (Mycobacterium kansasii): 0.03 µM (≈ 0.0247 µg/mL)
MIC90 [2]: 0.11 µM
MIC [5]: 162 µM (≈ 133 µg/mL)
MIC (Mycobacterium avium): < 0.78 µM
MIC (Mycobacterium marinum): 1.2 µM (≈ 0.988 µg/mL)

NNC(=O)c1ccncc1 [ISONIAZID]
MIC (Mycobacteroides chelonae): > 500 µM
MIC (Mycobacterium kansasii): 9.1 µM (≈ 1.25 µg/mL)
MIC [5]: > 500 µM
MIC (Mycobacterium avium): > 500 µM
MIC (Mycobacterium marinum): > 1000 µM

Cc1cnc2nc(C)c(C(=O)NCc3ccccc3)n2c1
MIC (Mycobacteroides chelonae): > 128 µM
MIC [3]: > 128 µM
MIC90 [1]: 6.95 µM (≈ 1.95 µg/mL)
MIC (Candida albicans): > 128 µM
MIC (Mycobacterium kansasii): 18.7 µM (≈ 5.24 µg/mL)
MIC90 [2]: 1.27 µM
MIC90 [4]: > 128 µM
MIC (Escherichia coli): > 128 µM
MIC (Staphylococcus aureus): > 128 µM
MIC [5]: > 128 µM
MIC (Mycobacterium avium): 122 µM (≈ 34.2 µg/mL)
IC50 (Vero): > 128 µM
MIC (Mycobacterium marinum): > 128 µM

Cc1cc(C)n2nc(C(=O)NCc3ccccc3)nc2n1
MIC (Mycobacteroides chelonae): > 128 µM
MIC [3]: > 128 µM
MIC90 [1]: > 128 µM
MIC (Candida albicans): > 128 µM
MIC (Mycobacterium kansasii): > 128 µM
MIC90 [2]: 126 µM
MIC90 [4]: > 128 µM
MIC (Escherichia coli): > 128 µM
MIC (Staphylococcus aureus): > 128 µM
MIC [5]: > 128 µM
MIC (Mycobacterium avium): > 128 µM
IC50 (Vero): > 128 µM
MIC (Mycobacterium marinum): > 128 µM

Cc1cnc2nc(C)c(C(=O)OCc3ccccc3)n2c1
MIC90 [1]: 1.4 µM (≈ 0.394 µg/mL)
MIC90 [2]: 1.4 µM
